Like-named read-outs stand apart in the source and are kept apart here.
Tests used:
HeLa cells = assay: CCK-8 antiproliferative assay, HeLa; format: cell-based, human; conditions: for IC50: Homo sapiens, HeLa, read-out: IC50 HeLa; for SIHeLa, selectivity index between L-02 and HeLa: SI = IC50(L-02)/IC50(HeLa)
Protocol: (§1) All cells were cultured in Dulbecco’s Modified Eagle’s Medium (DMEM) (Burlington, MA, USA) or Roswell Park Memorial Institute (RPMI)-1640 medium containing 10% fetal bovine serum and 1% penicillin/streptomycin in an incubator at 37 °C and 5% CO2. […] Cell suspension with a concentration of 8 × 10^4 cells/mL was prepared after cell counting. 100 μL cell suspension was added to each well of the 96-well plate and then placed in an incubator overnight. Most of the derivatives were configured into 80 mM, 20 mM or 4 mM stock solution in DMSO, and the stock solution concentration of BFA and paclitaxel was 0.4 mM. […] The medium in each well was discarded, and 100 μL of gradient diluted derivative solution was added (the control group was added with serum-free medium).

A375 cells = assay: CCK-8 antiproliferative assay, A375; format: cell-based; conditions: Homo sapiens, read-out: IC50 A375
Protocol: as §1

MDA-MB-231 cells = assay: CCK-8 antiproliferative assay, MDA-MB-231; format: cell-based; conditions: Homo sapiens, read-out: IC50 MDA-MB-231
Protocol: as §1

A549 cells = assay: CCK-8 antiproliferative assay, A549; format: cell-based; conditions: Homo sapiens, read-out: IC50 A549
Protocol: as §1

HepG2 cells = assay: CCK-8 antiproliferative assay, HepG2; format: cell-based; conditions: Homo sapiens, read-out: IC50 HepG2
Protocol: as §1

L-02 cells = assay: CCK-8 cytotoxicity assay, normal liver L-02; format: cell-based; conditions: Homo sapiens, read-out: IC50 L-02
Protocol: as §1

[1] = CCK-8, 48 h, mean ± SD of three experiments
[2] = A-375, CCK-8, 48 h, mean ± SD of three experiments
[3] = MDA-MB-231, CCK-8, 48 h, mean ± SD of three experiments
[4] = A549, CCK-8, 48 h, mean ± SD of three experiments
[5] = HepG2, CCK-8, 48 h, mean ± SD of three experiments
[6] = L02, CCK-8, 48 h, normal liver cells, mean ± SD of three experiments

Row | SMILES | IC50 (HeLa cells; [1]) [µM] | IC50 (A375 cells; [2]) [µM] | IC50 (MDA-MB-231 cells; [3]) [µM] | IC50 (A549 cells; [4]) [µM] | IC50 (HepG2 cells; [5]) [µM] | IC50 (L-02 cells; [6]) [µM] | SIHeLa, selectivity index between L-02 and HeLa (HeLa cells) | IC50 (HeLa cells; 48 h) [µM] | IC50 (A375 cells; A-375, 48 h) [µM] | IC50 (MDA-MB-231 cells; MDA-MB-231, 48 h) [µM] | IC50 (A549 cells; A549, 48 h) [µM] | IC50 (HepG2 cells; HepG2, 48 h) [µM] | IC50 (L-02 cells; L02, 48 h) [µM]
1 | C[C@H]1CCC/C=C/[C@@H]2C[C@H](O)C[C@H]2[C@H](OC(=O)CCC(=O)OCCCCCCOC(=O)c2ccc(N=C=S)cc2)/C=C/C(=O)O1 [Compound 9e, (1R,2E,6S,10E,11aS,13S,14aR)-13-Hydroxy-6-methyl-4-oxo-1,6,7,8,9,11a,12,13,14,14a-decahydro-4H-cyclopenta[f][1]oxacyclotridecin-1-yl (6-((4-isothiocyanatobenzoyl)oxy)hexyl) succinate] | 0.81 ± 0.03 | 3.87 ± 0.35 | 1.56 ± 0.05 | 2.59 ± 0.13 | 5.77 ± 0.07 | 7.87 ± 0.33 |  |  |  |  |  |  | 
2 | C[C@H]1CCC/C=C/[C@@H]2C[C@H](OC(=O)/C=C\C(=O)OCCOC(=O)c3ccc(N=C=S)cc3)C[C@H]2[C@H](OC(=O)/C=C\C(=O)OCCOC(=O)c2ccc(N=C=S)cc2)/C=C/C(=O)O1 [Compound 8g, Bis(2-((4-isothiocyanatobenzoyl)oxy)ethyl) O,O’-((1R,2E,6S,10E,11aS,13S,14aR)-6-methyl-4-oxo-1,6,7,8,9,11a,12,13,14,14a-decahydro-4H-cyclopenta[f][1]oxacyclotridecine-1,13-diyl) dimaleate] | 9.74 ± 0.37 | > 40 | > 40 | > 40 | > 40 | > 80 | >8.21 |  |  |  |  |  | 
3 | O=C(O)c1ccc(N=C=S)cc1 [Compound 2, 4-Carboxyphenyl isothiocyanate, reference compound] |  |  |  |  |  |  | 1.48 | 45.7 ± 1.74 | 43 ± 3.34 | 82.1 ± 2.7 | 79.2 ± 2.52 | > 100 | 67.8 ± 2
4 | C[C@H]1CCC/C=C/[C@@H]2C[C@H](OC(=O)/C=C\C(=O)OCC#CCOC(=O)c3ccc(N=C=S)cc3)C[C@H]2[C@H](OC(=O)/C=C\C(=O)OCC#CCOC(=O)c2ccc(N=C=S)cc2)/C=C/C(=O)O1 [Compound 8i, Bis(4-((4-isothiocyanatobenzoyl)oxy)but-2-yn-1-yl) O,O’-((1R,2E,6S,10E,11aS,13S,14aR)-6-methyl-4-oxo-1,6,7,8,9,11a,12,13,14,14a-decahydro-4H-cyclopenta[f][1]oxacyclotridecine-1,13-diyl) dimaleate] | > 40 | > 40 | > 40 | > 40 | > 40 | > 80 |  |  |  |  |  |  | 
5 | C[C@H]1CCC/C=C/[C@@H]2C[C@H](O)C[C@H]2[C@H](OC(=O)CCC(=O)OCC#CCOC(=O)c2ccc(N=C=S)cc2)/C=C/C(=O)O1 [Compound 9c, (1R,2E,6S,10E,11aS,13S,14aR)-13-Hydroxy-6-methyl-4-oxo-1,6,7,8,9,11a,12,13,14,14a-decahydro-4H-cyclopenta[f][1]oxacyclotridecin-1-yl (4-((4-isothiocyanatobenzoyl)oxy)but-2-yn-1-yl) succinate] | 3.63 ± 0.15 | 10.4 ± 0.16 | 9.77 ± 0.22 | 13.19 ± 0.03 | 8.84 ± 0.28 | 17.4 ± 0.44 | 4.79 |  |  |  |  |  | 
6 | C[C@H]1CCC/C=C/[C@@H]2C[C@H](OC(=O)CCC(=O)OCCOCCOC(=O)c3ccc(N=C=S)cc3)C[C@H]2[C@H](OC(=O)CCC(=O)OCCOCCOC(=O)c2ccc(N=C=S)cc2)/C=C/C(=O)O1 [Compound 8d, Bis(2-(2-((4-isothiocyanatobenzoyl)oxy)ethoxy)ethyl) O,O’-((1R,2E,6S,10E,11aS,13S,14aR)-6-methyl-4-oxo-1,6,7,8,9,11a,12,13,14,14a-decahydro-4H-cyclopenta[f][1]oxacyclotridecine-1,13-diyl) disuccinate] | 7.67 ± 0.33 | 22.8 ± 1.58 | > 40 | > 40 | > 40 | > 80 |  |  |  |  |  |  | 

From publication PMC10254530, “Design and Synthesis of Brefeldin A-Isothiocyanate Derivatives with Selectivity and Their Potential for Cervical Cancer Therapy” (Molecules, 2023)
